Assay results taken from patent US20250154109A1, “SODIUM CHANNEL BLOCKING COMPOUNDS, DERIVATIVES THEREOF, AND METHODS OF THEIR USE” (LATIGO BIOTHERAPEUTICS, INC, priority 2022, published 2025).
Structures can show the parent of a compound that is named as a salt. Where two headings read alike, the source gives them in different places.

Target: human Nav1.8 (Homo sapiens, UniProt Q9Y5Y9)
Assay: SyncroPatch384PE assay (automated patch clamp)
Assay type: cell-based
Settings: human Nav1.8/b3 CHO cells
[1] = inactivated state block (P2 measurement), read-out: P2 IC50
[2] = resting state block (P1 measurement), read-out: P1 IC50

human Nav1.8, sequence (Q9Y5Y9 whole entry): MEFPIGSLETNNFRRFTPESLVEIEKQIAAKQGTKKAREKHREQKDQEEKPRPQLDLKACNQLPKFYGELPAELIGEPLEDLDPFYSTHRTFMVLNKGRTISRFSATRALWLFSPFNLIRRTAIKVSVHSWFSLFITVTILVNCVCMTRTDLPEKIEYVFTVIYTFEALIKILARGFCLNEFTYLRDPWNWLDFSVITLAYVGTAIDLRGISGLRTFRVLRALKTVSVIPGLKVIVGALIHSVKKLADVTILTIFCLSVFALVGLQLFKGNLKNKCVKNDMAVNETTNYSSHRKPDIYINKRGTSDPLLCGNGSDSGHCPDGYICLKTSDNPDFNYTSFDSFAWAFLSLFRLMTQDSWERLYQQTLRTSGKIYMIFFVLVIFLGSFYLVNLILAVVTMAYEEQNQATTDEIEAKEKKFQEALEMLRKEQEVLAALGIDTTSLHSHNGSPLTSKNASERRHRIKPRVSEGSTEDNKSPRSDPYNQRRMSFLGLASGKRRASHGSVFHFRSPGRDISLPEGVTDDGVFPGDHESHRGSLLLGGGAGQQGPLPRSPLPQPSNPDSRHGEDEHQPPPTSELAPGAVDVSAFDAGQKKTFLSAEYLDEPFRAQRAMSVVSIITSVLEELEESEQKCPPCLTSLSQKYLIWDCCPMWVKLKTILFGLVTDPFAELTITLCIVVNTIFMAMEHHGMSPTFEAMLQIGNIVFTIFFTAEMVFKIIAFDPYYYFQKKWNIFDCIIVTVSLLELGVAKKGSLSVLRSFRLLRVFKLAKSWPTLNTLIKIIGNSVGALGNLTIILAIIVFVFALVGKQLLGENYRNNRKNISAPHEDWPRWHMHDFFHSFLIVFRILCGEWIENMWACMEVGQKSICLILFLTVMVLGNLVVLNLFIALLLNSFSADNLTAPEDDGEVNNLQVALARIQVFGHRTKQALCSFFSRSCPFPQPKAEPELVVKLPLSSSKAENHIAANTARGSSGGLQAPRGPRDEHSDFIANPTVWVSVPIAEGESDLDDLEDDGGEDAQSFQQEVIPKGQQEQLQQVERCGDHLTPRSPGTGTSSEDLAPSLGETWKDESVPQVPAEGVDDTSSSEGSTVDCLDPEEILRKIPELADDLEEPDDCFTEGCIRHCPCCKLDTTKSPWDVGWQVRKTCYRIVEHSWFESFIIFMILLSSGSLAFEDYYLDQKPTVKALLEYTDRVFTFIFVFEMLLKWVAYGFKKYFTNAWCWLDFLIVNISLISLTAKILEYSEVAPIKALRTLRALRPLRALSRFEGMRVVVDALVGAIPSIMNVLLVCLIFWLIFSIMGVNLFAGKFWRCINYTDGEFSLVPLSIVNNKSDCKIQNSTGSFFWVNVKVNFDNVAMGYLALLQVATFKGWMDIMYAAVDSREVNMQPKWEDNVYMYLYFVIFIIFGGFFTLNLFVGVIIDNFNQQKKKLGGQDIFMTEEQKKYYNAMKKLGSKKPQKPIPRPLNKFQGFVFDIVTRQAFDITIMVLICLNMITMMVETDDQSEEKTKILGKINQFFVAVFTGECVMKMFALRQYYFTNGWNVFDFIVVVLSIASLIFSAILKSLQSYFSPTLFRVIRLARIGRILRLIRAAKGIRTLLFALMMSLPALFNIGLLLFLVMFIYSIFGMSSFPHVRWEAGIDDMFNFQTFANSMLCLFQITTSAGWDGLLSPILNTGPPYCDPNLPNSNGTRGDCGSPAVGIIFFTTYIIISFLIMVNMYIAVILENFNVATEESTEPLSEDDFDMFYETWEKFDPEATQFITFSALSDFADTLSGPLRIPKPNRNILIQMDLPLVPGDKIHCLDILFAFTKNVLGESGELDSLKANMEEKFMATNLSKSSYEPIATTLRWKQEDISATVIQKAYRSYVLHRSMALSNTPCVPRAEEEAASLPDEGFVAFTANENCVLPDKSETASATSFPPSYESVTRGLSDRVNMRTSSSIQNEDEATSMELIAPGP

| IC50 [1] | IC50 [2] | SMILES |
| --- | --- | --- |
| 50 to 100 nM | 50 to 100 nM | C[S@@](=N)(=O)c1cccc(NC(=O)c2cc(Cl)c(C(F)(F)F)cc2N2CCO[C@@H](C(F)(F)F)C2)c1 [Example 216, 5-chloro-N-(3-((R)—S-methylsulfonimidoyl)phenyl)-4-(trifluoromethyl)-2-((R)-2-(trifluoromethyl)morpholino)benzamide] |
| 50 to 100 nM | 100 to 200 nM | Cc1c(-c2ccccc2)nnc(N2CCCC(F)(F)CC2)c1C(=O)Nc1cccc([S@@](C)(=N)=O)c1 [Example 117, (S)-3-(4,4-difluoroazepan-1-yl)-5-methyl-N-(3-(S-methylsulfonimidoyl)phenyl)-6-phenylpyridazine-4-carboxamide] |
| ≤ 5 nM | ≤ 5 nM | Cc1c(Cl)c(C(F)(F)F)nc(N2CCCC(F)(F)CC2)c1C(=O)Nc1cccc([S@](C)(=N)=O)c1 [Example 109, (R)-5-chloro-2-(4,4-difluoroazepan-1-yl)-4-methyl-N-(3-(S-methylsulfonimidoyl)phenyl)-6-(trifluoromethyl)nicotinamide] |
| 5 to 50 nM | 5 to 50 nM | Cc1c(-c2cnn(C)c2)cnc(N2CCCC(F)(F)CC2)c1C(=O)Nc1cccc([S@@](C)(=O)=NC(=O)C(C)(C)N)c1 [Example 52, (R)-N-(3-(N-(2-amino-2-methylpropanoyl)-S-methylsulfonimidoyl)phenyl)-2-(4,4-difluoroazepan-1-yl)-4-methyl-5-(1-methyl-1H-pyrazol-4-yl)nicotinamide formate] |
| 5 to 50 nM | 5 to 50 nM | Cc1c(C(F)(F)F)nnc(N2CCCC(F)(F)CC2)c1C(=O)Nc1ccnc(S(C)(=N)=O)c1 (centres unmarked) [Example 102, 3-(4,4-difluoroazepan-1-yl)-5-methyl-N-(2-(S-methylsulfonimidoyl)pyridin-4-yl)-6-(trifluoromethyl)pyridazine-4-carboxamide] |
| ≤ 5 nM | ≤ 5 nM | Cc1c(-c2ccccc2)cnc(N2CCCC(F)(F)CC2)c1C(=O)Nc1cccc(S(C)(=N)=O)c1 (centres unmarked) [Example 42, 2-(4,4-Difluoroazepan-1-yl)-4-methyl-N-(3-(S-methylsulfonimidoyl)phenyl)-5-phenylnicotinamide] |
| > 200 nM | > 200 nM | Cc1nc(N2CCNCC2)nc(N2CCCC(F)(F)CC2)c1C(=O)Nc1cccc([S@](C)(=N)=O)c1 [Example 161, (R)-4-(4,4-difluoroazepan-1-yl)-6-methyl-N-(3-(S-methylsulfonimidoyl)phenyl)-2-(piperazin-1-yl)pyrimidine-5-carboxamide] |
| ≤ 5 nM | ≤ 5 nM | CNCC(=O)N=[S@](C)(=O)c1cccc(NC(=O)c2c(N3CCCC(F)(F)CC3)nnc(C(F)(F)F)c2C)c1 [Example 43, (R)-3-(4,4-difluoroazepan-1-yl)-5-methyl-N-(3-(S-methyl-N-(methylglycyl)sulfonimidoyl)phenyl)-6-(trifluoromethyl)pyridazine-4-carboxamide] |
| 5 to 50 nM | 5 to 50 nM | Cc1c(-c2cnco2)cnc(N2CCCC(F)(F)CC2)c1C(=O)Nc1cccc([S@](C)(=N)=O)c1 [Example 147, (R)-2-(4,4-difluoroazepan-1-yl)-4-methyl-N-(3-(S-methylsulfonimidoyl)phenyl)-5-(oxazol-5-yl)nicotinamide] |
| ≤ 5 nM | ≤ 5 nM | Cc1c(Cl)c(-c2cnn(C)c2)nc(N2CCCC(F)(F)CC2)c1C(=O)Nc1cccc([S@](C)(=N)=O)c1 [Example 162, (R)-5-chloro-2-(4,4-difluoroazepan-1-yl)-4-methyl-6-(1-methyl-1H-pyrazol-4-yl)-N-(3-(S-methylsulfonimidoyl)phenyl)nicotinamide] |
| ≤ 5 nM | ≤ 5 nM | Cc1cc(C(F)(F)F)nc(N2CCCC(F)(F)CC2)c1C(=O)Nc1cccc([S@@](C)(=N)=O)c1 [Example 34, (S)-2-(4,4-Difluoroazepan-1-yl)-4-methyl-N-(3-(S-methylsulfonimidoyl)phenyl)-6-(trifluoromethyl)nicotinamide] |
| ≤ 5 nM | ≤ 5 nM | CNCC(=O)N=[S@](C)(=O)c1cccc(NC(=O)c2c(N3CCCC(F)(F)CC3)ncc(-c3ccc4c(c3)OCCO4)c2C)c1 [Example 48, (R)-2-(4,4-difluoroazepan-1-yl)-5-(2,3-dihydrobenzo[b][1,4]dioxin-6-yl)-4-methyl-N-(3-(S-methyl-N-(methylglycyl)sulfonimidoyl)phenyl)nicotinamide] |
| 50 to 100 nM | 100 to 200 nM | Cc1c(C(F)(F)F)nnc(N2CCCC(F)(F)CC2)c1C(=O)Nc1cccc(S(C)(=N)=N)c1 [Example 120, 3-(4,4-difluoroazepan-1-yl)-N-{3-[diimino(methyl)-λ^6-sulfanyl]phenyl}-5-methyl-6-(trifluoromethyl)pyridazine-4-carboxamide] |
| 100 to 200 nM | > 200 nM | C[S@@](=N)(=O)c1cccc(NC(=O)c2cc(C(F)(F)F)nnc2N2CCCC(F)(F)CC2)c1 [Example 18, (R)-3-(4,4-difluoroazepan-1-yl)-N-(3-(S-methylsulfonimidoyl)phenyl)-6-(trifluoromethyl)pyridazine-4-carboxamide] |
| > 200 nM | > 200 nM | Cc1nc(N2CCOCC2)nc(N2CCCC(F)(F)CC2)c1C(=O)Nc1cccc([S@](C)(=N)=O)c1 [Example 155, (R)-4-(4,4-difluoroazepan-1-yl)-6-methyl-N-(3-(S-methylsulfonimidoyl)phenyl)-2-morpholinopyrimidine-5-carboxamide] |
| > 200 nM | > 200 nM | Cc1cc(C(N)=O)nc(N2CCCC(F)(F)CC2)c1C(=O)Nc1cccc([S@](C)(=N)=O)c1 [Example 153, (R)-6-(4,4-difluoroazepan-1-yl)-4-methyl-N5-(3-(S-methylsulfonimidoyl)phenyl)pyridine-2,5-dicarboxamide] |
| 5 to 50 nM | 5 to 50 nM | Cc1c(-c2ccc3c(c2)OCCO3)cnc(N2CCCC(F)(F)CC2)c1C(=O)Nc1cccc([S@](C)(=N)=O)c1 [Example 47, (R)-2-(4,4-difluoroazepan-1-yl)-5-(2,3-dihydrobenzo[b][1,4]dioxin-6-yl)-4-methyl-N-(3-(S-methylsulfonimidoyl)phenyl)nicotinamide] |
| ≤ 5 nM | ≤ 5 nM | Cc1c(C(F)(F)F)cnc(N2CCCC(F)(F)CC2)c1C(=O)Nc1cccc([S@@](C)(=O)=NC(=O)CO)c1 [Example 195, (R)-2-(4,4-difluoroazepan-1-yl)-N-(3-(N-(2-hydroxyacetyl)-S-methylsulfonimidoyl)phenyl)-4-methyl-5-(trifluoromethyl)nicotinamide] |
| > 200 nM | > 200 nM | Cc1c(N2CC3(COC3)C2)nnc(N2CCCC(F)(F)CC2)c1C(=O)Nc1cccc([S@](C)(=N)=O)c1 [Example 140, (R)-3-(4,4-difluoroazepan-1-yl)-5-methyl-N-(3-(S-methylsulfonimidoyl)phenyl)-6-(2-oxa-6-azaspiro[3.3]heptan-6-yl)pyridazine-4-carboxamide] |
| 5 to 50 nM | 5 to 50 nM | CS(=N)(=O)c1cccc(NC(=O)c2cc(C(F)(F)F)nnc2N2CCCC(F)(F)CC2)c1 (centres unmarked) [Example 6, 3-(4,4-difluoroazepan-1-yl)-N-(3-(S-methylsulfonimidoyl)phenyl)-6-(trifluoromethyl)pyridazine-4-carboxamide] |
| 100 to 200 nM | 100 to 200 nM | Cc1c(-c2ccn(C)n2)cnc(N2CCCC(F)(F)CC2)c1C(=O)Nc1cccc(S(C)(=N)=O)c1 (centres unmarked) [Example 89, 2-(4,4-difluoroazepan-1-yl)-4-methyl-5-(1-methyl-1H-pyrazol-3-yl)-N-(3-(S-methylsulfonimidoyl)phenyl)nicotinamide] |
| ≤ 5 nM | ≤ 5 nM | Cc1c(-c2ccc(F)c(F)c2)cnc(N2CCCC(F)(F)CC2)c1C(=O)Nc1cccc([S@](C)(=N)=O)c1 [Example 59, (R)-2-(4,4-difluoroazepan-1-yl)-5-(3,4-difluorophenyl)-4-methyl-N-(3-(S-methylsulfonimidoyl)phenyl)nicotinamide] |
| ≤ 5 nM | ≤ 5 nM | C=CCCc1ccc(C(=O)Nc2cccc(S(C)(=N)=O)c2)c(N2CCCC(F)(F)CC2)n1 (centres unmarked) [Example 13, 6-(3-Buten-1-yl)-2-(4,4-difluoroazepan-1-yl)-N-(3-(S-methylsulfonimidoyl)phenyl)nicotinamide] |
| ≤ 5 nM | ≤ 5 nM | CNCC(=O)N=[S@](C)(=O)c1cccc(NC(=O)c2c(N3CCCC(F)(F)CC3)ncc(-c3cc(F)cc(F)c3)c2C)c1 [Example 62, (R)-2-(4,4-difluoroazepan-1-yl)-5-(3,5-difluorophenyl)-4-methyl-N-(3-(S-methyl-N-(methylglycyl)sulfonimidoyl)phenyl)nicotinamide] |
| ≤ 5 nM | ≤ 5 nM | Cc1c(C(F)(F)F)nnc(N2CCCC(F)(F)CC2)c1C(=O)Nc1cccc(S(=N)(N)=O)c1 (centres unmarked) [Example 115, 3-(4,4-difluoroazepan-1-yl)-5-methyl-N-(3-sulfamidimidoylphenyl)-6-(trifluoromethyl)pyridazine-4-carboxamide] |
| ≤ 5 nM | ≤ 5 nM | Cc1c(-c2ccc(C(F)F)cc2)cnc(N2CCCC(F)(F)CC2)c1C(=O)Nc1cccc(S(C)(=N)=O)c1 (centres unmarked) [Example 87, 2-(4,4-difluoroazepan-1-yl)-5-(4-(difluoromethyl)phenyl)-4-methyl-N-(3-(S-methylsulfonimidoyl)phenyl)nicotinamide] |
| 100 to 200 nM | 100 to 200 nM | Cc1c(C(F)(F)F)nnc(N2CCCCCC2)c1C(=O)Nc1cccc([S@@](C)(=N)=O)c1 [Example 11, (S)-3-(azepan-1-yl)-5-methyl-N-(3-(S-methylsulfonimidoyl)phenyl)-6-(trifluoromethyl)pyridazine-4-carboxamide] |
| 5 to 50 nM | 5 to 50 nM | Cc1c(-c2c(F)cccc2F)cnc(N2CCCC(F)(F)CC2)c1C(=O)Nc1cccc(S(C)(=N)=O)c1 (centres unmarked) [Example 104, 2-(4,4-difluoroazepan-1-yl)-5-(2,6-difluorophenyl)-4-methyl-N-(3-(S-methylsulfonimidoyl)phenyl)nicotinamide] |
